Here are results for three molecules from patent publication US20200148682A1, “AKT ISOZYME-SPECIFIC COVALENT INHIBITORS DERIVED FROM REDOX-SIGNALING LIPIDS” (Cornell University, priority 2017, published 2020).

Holding throughout (type): cell-based
Assay [1] has as its target T1, Akt3 (pT305) (Homo sapiens, UniProt Q9Y243).
T1 construct: expressed in transfected cells; host or cells: HEK293T
Briefly: Western blot and ratiometric ELISA of Akt phosphorylation in HEK293T cells. The following applies: 5 μM, 48 hours. The procedure: (§1) After this time, cells were lysed and analyzed by antibodies for phosphorylated T305 (pT305) of Akt3, Halo (Akt), and Actin (loading control). […] FIG. 23F is a graph showing proliferation curves. […] After this time, the number of viable cells was calculated using AlamarBlue®. Proliferation curves were fitted to the PI50 equation (EQN. 4). […] FIG. 23H is a graph showing the percentage of viable cells. […] The percentage of growth relative to DMSO-treated cells is shown for the 48 hour point and the 72 hour point. FIG. 23I is a schematic showing the different methods used to derive the data in 23H.
The proteins in gel were transferred onto a PVDF membrane in Towbin buffer at 90 V for 2 hours at 4° C. or at 33 V overnight at 4° C. […] Proteins were visualized using Pierce™ ECL Western Blotting Substrate (32106, Thermo Fisher), Pierce™ ECL2 Western Blotting Substrate (32132, Thermo Fisher) or SuperSignal™ Western Blot Enhancer (46640, Thermo Fisher), depending on the signal strength.
Anti-Halo antibody at 1 μg/mL concentration in sodium bicarbonate buffer (pH 9.6) was added to a 96-well white plate (80 μL […]) at 4° C. for 24 hours. After this, the incubation buffer was removed and the wells were washed once with TBS-T2 (100 mM Tris, 150 mM NaCl 0.03% Tween-20) and then blocked in 5% BSA in TBS-T2 (280 μL per well) for 3-5 hours at room temperature. […]
(A western blot detects proteins with antibodies after separation by electrophoresis.)

For assay [2], the target named is T2, Halo-Akt2 (Homo sapiens, UniProt P31751).
T2 construct: expressed in transfected cells; host or cells: HEK293T
In words: AKTAR FRET assay in live HEK293T cells. The following applies: 5 μM, 24 hours. On the procedure: (§2) FIGS. 21C-21D: HEK293T cells were transfected with plasmids encoding AKTAR and Halo-Akt3 (1:1). After 12 hours, cells were treated with MK-2206 (5 μM) or MK-HNE (5 μM). After 24 hours and 48 hours Akt3 activity was measured using ratiometric FRET analysis in live cells. After 48 hours, cells were washed two times with drug-free media containing 10% FBS and allowed to recover in 3% FBS MEM media for another 24 hours, after which time Akt3 activity was assayed using FRET again. wd=withdrawal for 24 hours. […] FIG. 21D is a graph showing quantitation of all data sets for treatment of HEK293T cells expressing Halo-Akt3/AKTAR. […] FIG. 21F is a graph showing quantitation of all data sets for treatment of HEK293T cells expressing Halo-Akt2/AKTAR. […] FIG. 21H is a graph showing quantitation of all data sets for treatment of HEK293T cells expressing Halo-Akt3C119S mutant/AKTAR.
(§3) HEK293T cells were plated in imaging plates at 60% confluence. After 24 hours, cells in each plate were transfected with 1 μg AktAR reporter plasmid and 1 μg plasmid of the designated HaloTag fusion Akt gene in PCS2+8 vector, using TransIT 2020 (6 μL) (FIG. 21B). 12 hours after transfection, cells were treated with 5 μM inhibitor or the equivalent final volume of DMSO in rinse medium containing 3% FBS and incubated for 24 hours before imaging. FRET imaging was performed using a Zeiss LSM 710 confocal microscope as previously described. Briefly, a 458 nm argon laser was used for excitation. The signals in the cyan channel (463-498 nm) and the yellow channel (525-620 nm) were recorded. Cells were then incubated in drug medium for another 24 hours before next imaging. The medium was aspirated and the cells were gently rinsed with 3% FBS in rinse medium twice every 30 min over the next hour, Fresh rinse medium with 3% FBS was added and the cells were imaged again after 24 hours. For quantification, the mean CFP and YFP signal intensity was measured using Image by drawing a freehand circle around the cells, and the ratio image was calculated. Graphing and data analysis (Student's t-test) were performed using Prism software.
(§4) One of the key benefits of covalent inhibition is the ability to uncouple pharmacokinetics from pharmacodynamics. This effect is achieved, because once irreversible inhibition occurs, an irreversible inhibitor will remain bound to its target post clearance of the unbound inhibitor. On the other hand, for a reversible inhibitor, as drug concentration drops, the drug is released from its target and inhibition is lost. This situation can be modeled in cell culture by removal of the drug from the media and measuring changes in activity as a function of time post drug removal. Akt inhibition was assayed using AKTAR (FIG. 21A). This fusion of two fluorescent proteins emits two different frequencies of light when excited with blue light, depending on the activity of Akt. When the construct is selectively phosphorylated by Akt, both blue and green light are emitted, due to fluorescence resonance energy transfer (FRET) from the CFP to the YFP. However, when the protein is not phosphorylated, emission is mainly in the blue channel. Thus the ratio of green to blue emission is a direct readout of Akt activity in live cells.

For assay [3], the target named is T3, Halo-Akt3 (Homo sapiens, UniProt Q9Y243).
T3 construct: expressed in transfected cells; host or cells: HEK293T
Briefly: AKTAR FRET assay in live HEK293T cells. Conditions: for Akt3 activity (green/blue FRET ratio) during treatment: 5 μM, 24 hours. On the procedure:
as §2, §3, §4

Assay [4] deals with T4, Akt3(C119S) (Homo sapiens, UniProt Q9Y243, C119S).
T4 construct: expressed in transfected cells; host or cells: HEK293T
Briefly: AKTAR FRET assay in live HEK293T cells. The following applies: for Akt3(C119S) activity (FRET) during treatment: 5 μM; for Akt3(C119S) activity (FRET) after drug withdrawal: 24 hours after removal from media. The procedure:
as §2, §3, §4

Assay [5] relates to six other cultured cell lines (breast cancer lines not PTEN-null TNBC, fibroblast lines). Briefly: Cell viability assay (AlamarBlue), six other cultured cell lines. Conditions: for toxicity and selectivity across cell lines: 3 days. On the procedure:
as §1
Indicated cells were plated in a 96-well plate containing the DMEM complete medium (see Example 11 for complete medium formulation, 100 μL per well) with a density of 3,000-5,000 cells per well for 12 hours followed by the addition of varying concentrations of inhibitors in rinse medium (100 μL). The cells were allowed to grow for 72 hours and 100 μL of the culture medium was removed from each well. This was followed by the addition of 10 μL AlamarBlue® reagent to each well. The fluorescence emission signals at 590 nm were read by Cytation 3 cell imaging multi-mode reader (BioTeK) using an excitation wavelength of 560 nm. Curve fitting and data analysis were performed using Prism software.
For orientation: Resazurin is reduced to fluorescent resorufin, in cell work by metabolically active cells.

Assay [6] deals with MDA-MB-468 cells. In words: Assay for drug synergism with Akt isoform-specific knockdown. Conditions: for Fold Selectivity (MK-FNE vs MK-2206 sensitization by knockdown): 72 hours. The procedure:
MDA-MB-468 cells were plated in a 6-well plate to reach 80% confluence 10 hours post seeding. […] The cells were allowed to grow for 12 hours before addition of an equivalent volume of rinse medium containing varying concentrations of MK-2206, MK-FNE, or DMSO. The cells continued to grow for 72 hours before adding 1/10th volume of AlamarBlue® reagent to culture medium. The fluorescence emission signals at 590 nm were read by Cytation 3 cell imaging multi-mode reader (BioTeK) using an excitation wavelength of 560 nm. Curve fitting and data analysis were performed using Prism software. The effect of the different knockdowns on the drug action was expressed by calculating the fold selectivity (S): […]

Where [7] appears, read: knockdown of Akt3 (approximately 40-60%).

Several values for one entry are separate records, joined by “and”; a condition that tells them apart may be missing. Equal entries are not always repeated.

T3 sequence (Q9Y243 whole entry): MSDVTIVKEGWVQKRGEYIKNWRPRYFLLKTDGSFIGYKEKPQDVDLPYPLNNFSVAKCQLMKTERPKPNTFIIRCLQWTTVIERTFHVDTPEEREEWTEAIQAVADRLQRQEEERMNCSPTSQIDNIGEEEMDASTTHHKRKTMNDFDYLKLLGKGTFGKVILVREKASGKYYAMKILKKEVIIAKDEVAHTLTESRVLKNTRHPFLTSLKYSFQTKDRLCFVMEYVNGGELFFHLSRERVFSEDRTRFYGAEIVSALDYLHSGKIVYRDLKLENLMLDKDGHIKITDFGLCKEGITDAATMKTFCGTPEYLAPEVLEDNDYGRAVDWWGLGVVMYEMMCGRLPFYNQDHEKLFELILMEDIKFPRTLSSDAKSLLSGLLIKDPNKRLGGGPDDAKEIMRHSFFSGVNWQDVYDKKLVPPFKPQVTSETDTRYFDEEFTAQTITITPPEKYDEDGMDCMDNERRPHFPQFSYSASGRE
T4 sequence (Q9Y243 whole entry C119S): as the sequence (Q9Y243 whole entry) above, with C119S counted along it
T1 sequence (Q9Y243 whole entry): as the sequence (Q9Y243 whole entry) above
T2 sequence (P31751 whole entry): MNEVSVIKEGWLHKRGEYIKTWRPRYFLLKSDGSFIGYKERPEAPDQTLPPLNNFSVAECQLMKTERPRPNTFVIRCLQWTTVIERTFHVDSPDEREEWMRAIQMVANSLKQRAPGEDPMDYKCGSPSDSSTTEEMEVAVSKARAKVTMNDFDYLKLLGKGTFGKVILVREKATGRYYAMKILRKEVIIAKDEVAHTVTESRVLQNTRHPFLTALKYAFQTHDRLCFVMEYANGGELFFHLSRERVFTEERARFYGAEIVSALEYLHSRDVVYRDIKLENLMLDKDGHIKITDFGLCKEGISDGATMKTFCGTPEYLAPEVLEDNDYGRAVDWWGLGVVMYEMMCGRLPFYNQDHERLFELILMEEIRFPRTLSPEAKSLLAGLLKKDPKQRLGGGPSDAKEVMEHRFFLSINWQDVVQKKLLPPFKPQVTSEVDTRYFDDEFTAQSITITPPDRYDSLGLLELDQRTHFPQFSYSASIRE

Regarding `NC1(c2ccc(-c3nc4ccn5c(=O)[nH]nc5c4cc3-c3ccccc3)cc2)CCC1` [MK-2206], the “phosphorylation of T305 of Akt3” value in assay [1] is on record as “lowered phospho-T305 (pT305) levels considerably”. Also, the “Akt2 activity (green/blue FRET ratio) during treatment” value in assay [2] is “decrease in green/blue fluorescence”. The “Akt3 activity (green/blue FRET ratio) during treatment” value in assay [3] is “decrease in green/blue fluorescence”. In assay [3] (48 hours drug, then 24 hours withdrawal), the “Akt3 activity (green/blue FRET ratio) after drug withdrawal” value is given as “returned to those observed in untreated cells”. In assay [4], the “Akt3(C119S) activity (FRET) during treatment” value is “Akt inhibition was observed” and the “Akt3(C119S) activity (FRET) after drug withdrawal” value is given as “no inhibition was observed”. Moreover, the “toxicity and selectivity across cell lines” value in assay [5] is recorded as “generally toxic to most lines”. The “sensitization to toxicity relative to control knockdown cells” value in assay [6] (setting [7]) is listed as 2-3 fold.
Turning to `C#CCCCC(F)/C=C/C(=O)NC1(c2ccc(-c3nc4ccn5c(=O)[nH]nc5c4cc3-c3ccccc3)cc2)CCC1.Cl` (centres unmarked) [MK-FNE, (E)-8-(4-(1-(4-Fluoronon-2-en-8-ynamido)cyclobutyl)phenyl)-3-oxo-9-phenyl-2,3-dihydro-[1,2,4]triazolo[3,4-f][1,6]naphthyridin-7-ium Chloride], in assay [2], the “Akt2 activity (green/blue FRET ratio) during treatment” value is on record as “decrease in green/blue fluorescence”. In addition, the “Akt3 activity (green/blue FRET ratio) during treatment” value in assay [3] is “decrease in green/blue fluorescence”. Also, the “toxicity and selectivity across cell lines” value in assay [5] is reported as “significantly selective against PTEN-null TNBC lines”. Besides, the “PI50(MK-FNE)/PI50(MK-2206)” value is “greater than 2” in assay [5] (all but PTEN-null TNBC lines, except TSE) and “above 8” in assay [5] (some lines). The “sensitization to toxicity relative to control knockdown cells” value is “around 2 fold” in assay [6] (Akt1 or Akt2 knockdown (approximately 40-60%), on average) and “around 8 fold” in assay [6] (setting [7]). Further, the “Fold Selectivity (MK-FNE vs MK-2206 sensitization by knockdown)” value was 0.5 and 0.4 in assay [6] (siAKT1, two siRNAs); 3.9 and 3.7 in assay [6] (siAKT3, two siRNAs).
Regarding `C#CCCCC(O)/C=C/C(=O)NC1(c2ccc(-c3nc4ccn5c(=O)[nH]nc5c4cc3-c3ccccc3)cc2)CCC1.Cl` (centres unmarked) [MK-HNE, (E)-8-(4-(1-(4-Hydroxynon-2-en-8-ynamido)cyclobutyl)phenyl)-3-oxo-9-phenyl-2,3-dihydro-[1,2,4]triazolo[3,4-f][1,6]naphthyridin-7-ium Chloride], the “phosphorylation of T305 of Akt3” value in assay [1] is “did not affect phosphorylation levels”. Further, in assay [4], the “Akt3(C119S) activity (FRET) during treatment” value is on record as “Akt inhibition was observed” and the “Akt3(C119S) activity (FRET) after drug withdrawal” value is on record as “no inhibition was observed”.
